Test: Thermal aqueous solubility of the compound at pH 6.4 by high throughput assay
Format: physicochemical
Settings: buffer

For `COc1c(/C=C/c2ccc(NS(C)(=O)=O)cc2)cc(-c2ccc[nH]c2=O)cc1C(C)(C)C`, the solubility was < 1 µg/mL.
